This note sets out measurements from patent US11827628B2, “Compositions and methods for inhibition of the JAK pathway” (Rigel Pharmaceuticals, Inc., priority 2005, dated 2023).

The test system of experiment [1] is IL-4 stimulated expression of CD23 in human Ramos B cells (JAK-1 and JAK-3). The experiment is described as follows: Assay for Ramos B-Cell Line Stimulated with IL-4 (CD23 upregulation, FACS). The following applies: Ramos B-cell line stimulated with IL-4; CD23 expression by FACS; read-out: IC50, Example 41. The format is cell-based. The gist of the method:
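Compound effect on IL-4-driven JAK1/JAK3 signalling is gauged as CD23 surface expression, measured by FACS after 20-24 h of stimulation with IL-4 at 50 units/mL final. A 1 h compound pre-treatment at 37 °C precedes stimulation, and IC50 is derived from the results.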

The test system of the next experiment is Primary human T-cells. The experiment is described as follows: Primary Human T-Cell Proliferation Assay Stimulated with IL-2 (CellTiter-Glo). Type of experiment: cell-based. Conditions: read-out: IC50, Example 42. The gist of the method: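 IC50 derived from CellTiter-Glo ATP signal after 72 hours of IL-2-driven proliferation at 37° C. Cells: primary human T-cells from blood, stimulated beforehand 3-4 days on anti-CD3/anti-CD28 with IL-2, then rested from IL-2 before compound exposure in duplicate; IL-2-free wells served as unstimulated control.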
A general note: ATP-based viability assays read luminescence as a measure of living cells.

The mark [2] stands for this setting: primary human T-cell proliferation stimulated with IL-2.

Read-outs that look alike come from different tables or passages of the source.

Broadly, the IC50 is the midpoint of a concentration-inhibition curve. Regarding `Cc1cc(Nc2nc(Nc3ccc(S(N)(=O)=O)cc3)ncc2F)ccc1OC(C)C#N` (racemic) [Compound I-60, Racemic N2-(4-Aminosulfonyl)phenyl-N4-[4-(1-cyano)ethoxy-3-methyl]phenyl-5-fluoro-2,4-pyrimidinediamine], the IC50 in experiment [1] is 103 nM; in the experiment with Primary human T-cells (setting [2]), 2170 nM. `Cc1cc(Nc2nc(Nc3cccc(S(N)(=O)=O)c3)ncc2F)ccc1OC(C)C#N` (racemic) [Compound I-61, Racemic N2-(3-Aminosulfonyl)phenyl-N4-[4-(1-cyano)ethoxy-3-methyl]phenyl-5-fluoro-2,4-pyrimidinediamine]: the half-maximal inhibitory concentration (IC50) in experiment [1] was found to be 45.9 nM; with Primary human T-cells (setting [2]), 123 nM. As to `Cc1cc(Nc2nc(Nc3ccc(C)c(S(N)(=O)=O)c3)ncc2F)ccc1OC(C)C#N` (racemic) [Compound I-62, Racemic N2-(3-Aminosulfonyl-4-methyl)phenyl-N4-[4-(1-cyano)ethoxy-3-methyl]phenyl-5-fluoro-2,4-pyrimidinediamine], the IC50 in experiment [1] worked out at 101 nM; in the experiment with Primary human T-cells (setting [2]), 376 nM. For `Cc1cc(Nc2nc(Nc3ccc(S(N)(=O)=O)cc3)ncc2F)cc(C)c1OC(C)C#N` (racemic) [Compound I-63, Racemic N2-(4-Aminosulfonyl)phenyl-N4-[4-(1-cyano)ethoxy-3,5-dimethyl]phenyl-5-fluoro-2,4-pyrimidinediamine], the IC50 is 169 nM in experiment [1] and 1310 nM with Primary human T-cells (setting [2]). For `COc1cc(Nc2ncc(F)c(Nc3ccc(OC(C)C#N)c(C)c3)n2)ccc1S(N)(=O)=O` (racemic) [Compound I-64, Racemic N2-(4-Aminosulfonyl-3-methoxy)phenyl-N4-[4-(1-cyano)ethoxy-3-methyl]phenyl-5-fluoro-2,4-pyrimidinediamine], the 50% inhibitory concentration (IC50) in experiment [1] was determined as 113 nM; with Primary human T-cells (setting [2]) it was 1880 nM.

`CC(C#N)Oc1ccc(Nc2nc(Nc3cccc(S(N)(=O)=O)c3)ncc2F)cc1` (racemic) [Compound I-65, Racemic N2-(3-Aminosulfonyl)phenyl-N4-[4-(1-cyano)ethoxy]phenyl-5-fluoro-2,4-pyrimidinediamine]: the concentration for half-maximal inhibition (IC50) in experiment [1] was 96.5 nM; in the experiment with Primary human T-cells (setting [2]), 47.3 nM. For `CC(C#N)Oc1ccc(Nc2nc(Nc3ccc(S(N)(=O)=O)cc3)ncc2F)cc1` (racemic) [Compound I-66, Racemic N2-(4-Aminosulfonyl)phenyl-N4-[4-(1-cyano)ethoxy]phenyl-5-fluoro-2,4-pyrimidinediamine], the IC50 was 103 nM in experiment [1] and 287 nM in the experiment with Primary human T-cells (setting [2]). The corresponding values for `Cc1ccc(Nc2ncc(F)c(Nc3ccc(OC(C)C#N)cc3)n2)cc1S(N)(=O)=O` (racemic) [Compound I-67, Racemic N2-(3-Aminosulfonyl-4-methyl)phenyl-N4-[4-(1-cyano)ethoxy]phenyl-5-fluoro-2,4-pyrimidinediamine] are 33.2 nM and 157 nM. Regarding `CC(C#N)Oc1ccc(Nc2nc(Nc3ccc(F)c(S(N)(=O)=O)c3)ncc2F)cc1` (racemic) [Compound I-68, Racemic N2-(3-Aminosulfonyl-4-fluoro)phenyl-N4-[4-(1-cyano)ethoxy]phenyl-5-fluoro-2,4-pyrimidinediamine], the values for the IC50 (in experiment [1]; with Primary human T-cells (setting [2])) were 187 nM and 482 nM, respectively. On to `Cc1cc(Nc2nc(Nc3ccc(F)c(S(N)(=O)=O)c3)ncc2F)ccc1OC(C)C#N` (racemic) [Compound I-69, Racemic N2-(3-Aminosulfonyl-4-fluoro)phenyl-N4-[4-(1-cyano)ethoxy-3-methyl]phenyl-5-fluoro-2,4-pyrimidinediamine], for which the half-inhibitory concentration (IC50) amounted to 118 nM in experiment [1] and 1030 nM in the experiment with Primary human T-cells (setting [2]).

In the case of `COc1cc(Nc2ncc(F)c(Nc3ccc(OC(C)C#N)cc3)n2)ccc1S(N)(=O)=O` (racemic) [Compound I-70, Racemic N2-(4-Aminosulfonyl-3-methoxy)phenyl-N4-[4-(1-cyano)ethoxy]phenyl-5-fluoro-2,4-pyrimidinediamine], the values for the concentration for half-maximal inhibition (IC50) (in experiment [1]; with Primary human T-cells (setting [2])) were 61.4 nM and 573 nM, respectively.

Take `Cc1cc(Nc2nc(Nc3cccc(S(N)(=O)=O)c3)ncc2F)cc(C)c1OC(C)C#N` (racemic) [Compound I-71, Racemic N2-(3-Aminosulfonyl)phenyl-N4-[4-(1-cyano)ethoxy-3,5-dimethyl]phenyl-5-fluoro-2,4-pyrimidinediamine]: the IC50 worked out at 61.8 nM in experiment [1] and 136 nM in the experiment with Primary human T-cells (setting [2]). The corresponding values for `Cc1ccc(Nc2ncc(F)c(Nc3cc(C)c(OC(C)C#N)c(C)c3)n2)cc1S(N)(=O)=O` (racemic) [Compound I-72, Racemic N2-(3-Aminosulfonyl-4-methyl)phenyl-N4-[4-(1-cyano)ethoxy-3,5-dimethyl]phenyl-5-fluoro-2,4-pyrimidinediamine] are 52.4 nM and 303 nM. Consider `N#CCOc1cccc(Nc2nc(Nc3cccc(S(N)(=O)=O)c3)ncc2F)c1` [Compound I-4, N2-(3-Aminosulfonyl)phenyl-N4-(3-cyanomethoxy)phenyl-5-fluoro-2,4-pyrimidinediamine], for which the results for the concentration for half-maximal inhibition (IC50) (in experiment [1]; in the experiment on Primary human T-cells (setting [2])) were 49.1 nM and 178 nM, respectively.

Consider `Cc1cc(Nc2nc(Nc3ccc(F)c(S(N)(=O)=O)c3)ncc2F)ccc1OCC#N` [Compound I-34, N2-(3-Aminosulfonyl-4-fluoro)phenyl-N4-(4-cyanomethoxy-3-methyl)phenyl-5-fluoro-2,4-pyrimidinediamine], for which the IC50 in experiment [1] was 62.3 nM; in the experiment on Primary human T-cells (setting [2]), 806 nM. With `Cc1cc(Nc2nc(Nc3ccc(F)c(S(N)(=O)=O)c3)ncc2F)cc(C)c1OCC#N` [Compound I-35, N2-(3-Aminosulfonyl-4-fluoro)phenyl-N4-(4-cyanomethoxy-3,5-dimethyl)phenyl-5-fluoro-2,4-pyrimidinediamine], the IC50 in experiment [1] is 47 nM; in the experiment on Primary human T-cells (setting [2]), 1130 nM. As for `Cc1ccc(Nc2ncc(F)c(Nc3ccc(OCC#N)cc3)n2)cc1S(=O)(=O)NC(=O)C(C)C` [Compound I-37, N4-(4-Cyanomethyleneoxy)phenyl-5-fluoro-N2-(3-isobutyrylaminosulfonyl-4-methyl)phenyl-2,4-pyrimidinediamine], the half-inhibitory concentration (IC50) was found to be 499 nM in experiment [1] and 3680 nM in the experiment on Primary human T-cells (setting [2]). For the molecule `Cc1ccc(Nc2ncc(F)c(Nc3ccc(OCC#N)c(Cl)c3)n2)cc1S(N)(=O)=O` [Compound I-43, N2-(3-Aminosulfonyl-4-methylphenyl)-N4-(3-chloro-4-cyanomethoxypheny)-5-fluoro-2,4-pyrimidinediamine], the IC50 was 18.3 nM in experiment [1] and 183 nM with Primary human T-cells (setting [2]). On to `Cc1cnc(Nc2ccc(S(N)(=O)=O)cc2)nc1Nc1ccc(OCC#N)cc1` [Compound I-57, N2-(4-Aminosulfonylphenyl)-N4-(4-cyanomethoxyphenyl-5)-methyl-2,4-pyrimidinediamine], for which the 50% inhibitory concentration (IC50) turned out to be 21.6 nM in experiment [1] and 53.1 nM in the experiment on Primary human T-cells (setting [2]). For `Cc1ccc(Nc2ncc(F)c(Nc3ccc(OC(C)(C)C#N)cc3)n2)cc1S(N)(=O)=O` [Compound I-73, N2-(3-Aminosulfonyl-4-methyl)phenyl-N4-[4-(1-cyano-1-methyl)ethoxy]phenyl-5-fluoro-2,4-pyrimidinediamine], the IC50 came out at 120 nM in experiment [1] and 728 nM with Primary human T-cells (setting [2]). Regarding `CC(C)(C#N)Oc1ccc(Nc2nc(Nc3ccc(F)c(S(N)(=O)=O)c3)ncc2F)cc1` [Compound I-74, N2-(3-Aminosulfonyl-4-fluoro)phenyl-N4-[4-(1-cyano-1-methyl)ethoxy]phenyl-5-fluoro-2,4-pyrimidinediamine], the IC50 is 245 nM in experiment [1] and 1500 nM in the experiment on Primary human T-cells (setting [2]).

Consider `CC(C)(C#N)Oc1ccc(Nc2nc(Nc3ccc(S(N)(=O)=O)cc3)ncc2F)cc1` [Compound I-75, N2-(4-Aminosulfonyl)phenyl-N4-[4-(1-cyano-1-methyl)ethoxy]phenyl-5-fluoro-2,4-pyrimidinediamine], for which the figures for the half-inhibitory concentration (IC50) (in experiment [1]; in the experiment with Primary human T-cells (setting [2])) were 199 nM and 3300 nM, respectively. The corresponding values for `CC(C)(C#N)Oc1ccc(Nc2nc(Nc3cccc(S(N)(=O)=O)c3)ncc2F)cc1` [Compound I-76, N2-(3-Aminosulfonyl)phenyl-N4-[4-(1-cyano-1-methyl)ethoxy]phenyl-5-fluoro-2,4-pyrimidinediamine] are 101 nM and 196 nM. For the molecule `Cc1ccc(Nc2ncc(F)c(Nc3ccc(NC(=O)CC#N)c(Cl)c3)n2)cc1S(N)(=O)=O` [Compound I-83, N2-(3-Aminosulfonyl-4-methylphenyl)-N4-[3-chloro-4-(N-cyanoacetyl)aminophneyl]-5-fluoro-2,4-pyrimidinediamine], the IC50 is 158 nM in experiment [1] and 1760 nM in the experiment on Primary human T-cells (setting [2]). Take `Cc1ccc(Nc2ncc(F)c(Nc3cccc(OCC(N)=O)c3)n2)cc1S(N)(=O)=O` [Compound I-90, N4-(3-Aminocarbonylmethoxy)phenyl-N2-(3-aminosulfonyl-4-methyl)phenyl-5-fluoro-2,4-pyrimidinediamine]: the results for the IC50 (in experiment [1]; with Primary human T-cells (setting [2])) were 401 nM and 2190 nM, respectively. On to `Cc1cc(Nc2nc(Nc3cccc(S(N)(=O)=O)c3)ncc2F)ccc1OCC(N)=O` [Compound I-92, N4-(4-Aminocarbonylmethoxy-3-methyl)phenyl-N2-(3-aminosulfonyl)phenyl-5-fluoro-2,4-pyrimidinediamine], for which the concentration for half-maximal inhibition (IC50) in experiment [1] was 166 nM; in the experiment on Primary human T-cells (setting [2]) it was 543 nM.

Consider `Cc1cc(Nc2nc(Nc3cccc(S(N)(=O)=O)c3)ncc2F)cc(C)c1OCC(N)=O` [Compound I-93, N4-(4-Aminocarbonylmethoxy-3,5-dimethyl)phenyl-N2-(3-aminosulfonyl)phenyl-5-fluoro-2,4-pyrimidinediamine], for which the results for the half-inhibitory concentration (IC50) (in experiment [1]; with Primary human T-cells (setting [2])) were 265 nM and 1170 nM, respectively. Consider `Cc1ccc(Nc2ncc(F)c(Nc3ccc4c(c3)CCN4S(C)(=O)=O)n2)cc1S(N)(=O)=O` [VII-61, N2-(3-Aminosulfonyl-4-methylphenyl)-5-fluoro-N4-[4-(1-methylsulfonyl)indolin-5-yl]-2,4-pyrimidinediamine], for which the IC50 in the experiment with Primary human T-cells (primary human T-cells stimulated with IL-2, proliferation) is 140 nM.
